Earlier results in US6441047B2, “Combination therapy for treating glaucoma” (Alcon Manufacturing Ltd.., priority 1995, dated 2002).

Assays:
[1] = Drugs of the Future, 1994, 19, 905-909
[2] = Drugs of the Future, 1994, 19, 905-909; remark: listed apart in the source
[3] = Drugs of the Future, 1994, 19, 905-909; remark: listed apart in the source

OC(CN1CCC(Cc2ccc(F)cc2)CC1)c1ccc(Cl)cc1 (stereo not drawn) [eliprodil]
incidence of adverse effects upon administration [1]: low incidence of adverse effects | blood-brain barrier penetration [2]: effectively crosses the blood-brain barrier | oral bioavailability [3]: orally bioavailable
